Our source for the solubility values is patent publication US9918975B2, “Method for improving dissolution of anticoagulant agent” (Daiichi Sankyo Company, Limited, priority 2010, dated 2018).

A short description of this data set: Solubility of compound I in aqueous solutions. In kind it is physicochemical.

Structures are written as SMILES.

As to `CN1CCc2nc(C(=O)N[C@@H]3C[C@@H](C(=O)N(C)C)CC[C@@H]3NC(=O)C(=O)Nc3ccc(Cl)cn3)sc2C1` [compound I, N^1-(5-chloropyridin-2-yl)-N^2-((1S,2R,4S)-4-[(dimethylamino)carbonyl]-2-{[(5-methyl-4,5,6,7-tetrahydrothiazolo[5,4-c]pyridin-2-yl)carbonyl]amino}cyclohexyl)ethanediamide], the solubility result runs as follows: (neutral aqueous solutions (e.g., a neutral buffer)) “reduced solubility”; (strongly acidic aqueous solutions) “favorable solubility”.
